In the supplement of paper PMC10307832:

compound: C1=CC2=C(C=C(C(=C2N=C1)O)N=NC3=CC4=C(C=C3)C=C(C=C4)S(=O)(=O)O)S(=O)(=O)O + CC1(C)CCC(c2ccc(Cl)cc2)=C(CN2CCN(c3ccc(C(=O)NS(=O)(=O)c4ccc(N[C@H](CCN5CCOCC5)CSc5ccccc5)c(S(=O)(=O)C(F)(F)F)c4)cc3)CC2)C1 [Navitoclax] (partner 0.5 µM); experiment: relative viability (nuclei count vs DMSO), 5 days (fraction); higher = more cells survive; settings: first compound 0.08 µM
Outline: (§1)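 Nuclei were stained with Hoechst during a one-step fixation (final 0.05% Triton X-100, 1% formaldehyde, 1 ug/ml Hoechst) carried out 5 days after dosing, then counted on 4× images. The cells, lung cancer lines in 1536-well plates, had been dosed by pin tool the day after seeding with one drug alone or a fixed anchor-drug dose plus five library-drug doses (not always all listed) in √10 steps. Relative viability is the nuclei count in treated wells divided by that in vehicle wells, and each value is the median of duplicate plates.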

Cell Line | relative viability
NCI-H727 | 0.358
NCI-H1650 | 1.36
EBC-1 | 0.394
NCI-H1703 | 1.02
NCI-H1993 | 1.05
SW 1573 | 1.01
NCI-H838 | 1.24
NCI-H520 | 1.17
NCI-H2126 | 0.882
EMC-BAC-2 | 1.45
NCI-H2085 | 1.2
Calu-6 | 0.848
HCC-366 | 1.07
NCI-H1666 | 0.87
NCI-H596 | 0.946
LK-2 | 1.01
NCI-H2087 | 0.926

Cell Line | relative viability
SK-MES-1 | 1.26
H3255 | 0.502
COR-L23 | 1
COR-L 105 | 0.905
IA-LM | 0.769
LOU-NH91 | 0.72
ChaGo-K-1 | 0.933
NCI-H2170 | 0.628
NCI-H2405 | 0.86
HOP-62 | 1.1
HCC-44 | 1.03
A549 | 1.18
LU99A | 0.815
BEN | 0.0579
HARA | 1.15
NCI-H1299 | 1.09
NCI-H1792 | 0.712

same assay, conditions: first compound 0.253 µM

Cell Line | relative viability
NCI-H727 | 0.378
NCI-H1650 | 1.27
EBC-1 | 0.474
NCI-H1703 | 1.16
NCI-H1993 | 0.913
SW 1573 | 0.971
NCI-H838 | 1.23
NCI-H520 | 0.99
NCI-H2126 | 0.792
EMC-BAC-2 | 1.11
NCI-H2085 | 1.14
Calu-6 | 0.916
HCC-366 | 0.839
NCI-H1666 | 0.91
NCI-H596 | 0.973
LK-2 | 0.797
NCI-H2087 | 0.878

Cell Line | relative viability
SK-MES-1 | 1.16
H3255 | 0.477
COR-L23 | 0.969
COR-L 105 | 0.7
IA-LM | 0.885
LOU-NH91 | 0.672
ChaGo-K-1 | 0.955
NCI-H2170 | 0.477
NCI-H2405 | 0.746
HOP-62 | 1.03
HCC-44 | 0.863
A549 | 1.16
LU99A | 0.913
BEN | 0.0527
HARA | 1.15
NCI-H1299 | 1.05
NCI-H1792 | 0.578

same assay, conditions: first compound 0.8 µM

Cell Line | relative viability
NCI-H727 | 0.415
NCI-H1650 | 1.28
EBC-1 | 0.415
NCI-H1703 | 1.12
NCI-H1993 | 1.05
SW 1573 | 1.03
NCI-H838 | 1.17
NCI-H520 | 1.07
NCI-H2126 | 0.845
EMC-BAC-2 | 1.13
NCI-H2085 | 0.98
Calu-6 | 0.769
HCC-366 | 0.977
NCI-H1666 | 0.962
NCI-H596 | 1.06
LK-2 | 0.888
NCI-H2087 | 0.868

Cell Line | relative viability
SK-MES-1 | 1.31
H3255 | 0.487
COR-L23 | 1.06
COR-L 105 | 0.779
IA-LM | 0.819
LOU-NH91 | 0.704
ChaGo-K-1 | 0.968
NCI-H2170 | 0.544
NCI-H2405 | 0.959
HOP-62 | 1.12
HCC-44 | 1.01
A549 | 1.27
LU99A | 0.8
BEN | 0.0545
HARA | 1.18
NCI-H1299 | 0.976
NCI-H1792 | 0.598

same assay, conditions: first compound 2.53 µM

Cell Line | relative viability
NCI-H727 | 0.453
NCI-H1650 | 1.2
EBC-1 | 0.452
NCI-H1703 | 1.27
NCI-H1993 | 0.893
SW 1573 | 0.964
NCI-H838 | 1.09
NCI-H520 | 1.07
NCI-H2126 | 0.935
EMC-BAC-2 | 1.2
NCI-H2085 | 1.12
Calu-6 | 0.952
HCC-366 | 1.07
NCI-H1666 | 1.14
NCI-H596 | 0.964
LK-2 | 0.79
NCI-H2087 | 0.889

Cell Line | relative viability
SK-MES-1 | 1.26
H3255 | 0.604
COR-L23 | 1.06
COR-L 105 | 0.75
IA-LM | 0.75
LOU-NH91 | 0.723
ChaGo-K-1 | 1.06
NCI-H2170 | 0.637
NCI-H2405 | 0.993
HOP-62 | 1.07
HCC-44 | 1.02
A549 | 1.17
LU99A | 0.813
BEN | 0.0678
HARA | 1.14
NCI-H1299 | 1.08
NCI-H1792 | 0.623

same assay, conditions: first compound 8 µM

Cell Line | relative viability
NCI-H727 | 0.49
NCI-H1650 | 1.12
EBC-1 | 0.371
NCI-H1703 | 1.13
NCI-H1993 | 1.01
SW 1573 | 0.977
NCI-H838 | 1.2
NCI-H520 | 1.13
NCI-H2126 | 0.832
EMC-BAC-2 | 1.11
NCI-H2085 | 1.18
Calu-6 | 0.802
HCC-366 | 1.07
NCI-H1666 | 0.842
NCI-H596 | 1.01
LK-2 | 0.687
NCI-H2087 | 0.948

Cell Line | relative viability
SK-MES-1 | 1.19
H3255 | 0.646
COR-L23 | 0.612
COR-L 105 | 0.843
IA-LM | 0.694
LOU-NH91 | 0.687
ChaGo-K-1 | 1
NCI-H2170 | 0.707
NCI-H2405 | 0.788
HOP-62 | 1.1
HCC-44 | 0.969
A549 | 0.934
LU99A | 0.742
BEN | 0.0519
HARA | 1.11
NCI-H1299 | 1.06
NCI-H1792 | 0.632

compound: O=C(NC1CCNCC1)c1n[nH]cc1NC(=O)c1c(Cl)cccc1Cl [AT-7519] + CC1(C)CCC(c2ccc(Cl)cc2)=C(CN2CCN(c3ccc(C(=O)NS(=O)(=O)c4ccc(N[C@H](CCN5CCOCC5)CSc5ccccc5)c(S(=O)(=O)C(F)(F)F)c4)cc3)CC2)C1 [Navitoclax] (partner 0.5 µM); experiment: as above; settings: first compound 0.01 µM
Outline: as §1

Cell Line | relative viability
NCI-H727 | 0.374
NCI-H1650 | 1.32
EBC-1 | 0.368
NCI-H1703 | 0.956
NCI-H1993 | 0.895
SW 1573 | 0.921
NCI-H838 | 1.22
NCI-H520 | 1.14
NCI-H2126 | 0.893
EMC-BAC-2 | 0.89
NCI-H2085 | 1.18
Calu-6 | 1.09
HCC-366 | 1.07
NCI-H1666 | 0.893
NCI-H596 | 1
LK-2 | 0.76
NCI-H2087 | 1.03

Cell Line | relative viability
SK-MES-1 | 1.18
H3255 | 0.463
COR-L23 | 1.24
COR-L 105 | 0.766
IA-LM | 0.917
LOU-NH91 | 0.668
ChaGo-K-1 | 0.971
NCI-H2170 | 0.566
NCI-H2405 | 1.02
HOP-62 | 0.824
HCC-44 | 1.01
A549 | 1.18
LU99A | 0.846
BEN | 0.0644
HARA | 1.07
NCI-H1299 | 1.12
NCI-H1792 | 0.406

same assay, conditions: first compound 0.03162 µM

Cell Line | relative viability
NCI-H727 | 0.449
NCI-H1650 | 1.21
EBC-1 | 0.347
NCI-H1703 | 1.01
NCI-H1993 | 0.781
SW 1573 | 0.873
NCI-H838 | 1.06
NCI-H520 | 0.991
NCI-H2126 | 0.866
EMC-BAC-2 | 1.02
NCI-H2085 | 1.21
Calu-6 | 0.89
HCC-366 | 1.16
NCI-H1666 | 0.758
NCI-H596 | 1.06
LK-2 | 0.75
NCI-H2087 | 0.964

Cell Line | relative viability
SK-MES-1 | 1.08
H3255 | 0.491
COR-L23 | 1.15
COR-L 105 | 0.721
IA-LM | 0.865
LOU-NH91 | 0.629
ChaGo-K-1 | 1.39
NCI-H2170 | 0.497
NCI-H2405 | 0.829
HOP-62 | 0.983
HCC-44 | 0.86
A549 | 1.25
LU99A | 0.782
BEN | 0.0591
HARA | 1.12
NCI-H1299 | 1.02
NCI-H1792 | 0.552

same assay, conditions: first compound 0.3162 µM

Cell Line | relative viability
NCI-H727 | 0.245
NCI-H1650 | 1.2
EBC-1 | 0.329
NCI-H1703 | 1.01
NCI-H1993 | 0.984
SW 1573 | 0.704
NCI-H838 | 1.09
NCI-H520 | 0.986
NCI-H2126 | 0.83
EMC-BAC-2 | 1.05
NCI-H2085 | 0.967
Calu-6 | 0.901
HCC-366 | 1.07
NCI-H1666 | 0.724
NCI-H596 | 0.951
LK-2 | 0.77
NCI-H2087 | 1.04

Cell Line | relative viability
SK-MES-1 | 1.25
H3255 | 0.647
COR-L23 | 0.774
COR-L 105 | 0.644
IA-LM | 0.69
LOU-NH91 | 0.693
ChaGo-K-1 | 0.726
NCI-H2170 | 0.61
NCI-H2405 | 0.853
HOP-62 | 1.01
HCC-44 | 0.997
A549 | 1.15
LU99A | 0.745
BEN | 0.069
HARA | 1.12
NCI-H1299 | 1.08
NCI-H1792 | 0.642

same assay, conditions: first compound 1 µM

Cell Line | relative viability
NCI-H727 | 0.121
NCI-H1650 | 0.291
EBC-1 | 0.159
NCI-H1703 | 0.225
NCI-H1993 | 0.548
SW 1573 | 0.224
NCI-H838 | 0.147
NCI-H520 | 0.605
NCI-H2126 | 0.823
EMC-BAC-2 | 1.18
NCI-H2085 | 0.658
Calu-6 | 0.115
HCC-366 | 0.672
NCI-H1666 | 0.316
NCI-H596 | 0.637
LK-2 | 0.745
NCI-H2087 | 0.0625

Cell Line | relative viability
SK-MES-1 | 1.15
H3255 | 0.431
COR-L23 | 0.138
COR-L 105 | 0.347
IA-LM | 0.435
LOU-NH91 | 0.525
ChaGo-K-1 | 0.982
NCI-H2170 | 0.45
NCI-H2405 | 0.528
HOP-62 | 0.923
HCC-44 | 0.958
A549 | 0.837
LU99A | 0.382
BEN | 0.0528
HARA | 0.97
NCI-H1299 | 1.24
NCI-H1792 | 0.752
